The values below come from patent publication US20090181904A1, “METHOD FOR REGULATING NUTRIENT ABSORPTION WITH GINSENOSIDES” (priority 2005, published 2009).

Format in all cases: cell-based, human
One experiment has as its system Caco-2 cell monolayer. Kind of experiment: Tryptophan absorption assay (transport across Caco-2 monolayer). The protocol:
In measuring transport of arginine across the Caco-2 cell monolayer, both sides of the transwells were washed with arginine incubation buffer consisting of: 137 mM NaCl, 10 mM Hepes, 0.3 mM NaH2PO4, 0.3 mM K2HPO4, 5.4 mM KCl, 2.8 mM CaCl2, 1 mM MgSO4, 10 mM glucose, adjusted to pH 7.4. Then, the cell layer was pre-incubated in the incubation buffer at 37° C. for 1 h. The volumes of incubation buffer were 0.2 mL and 0.9 mL in the apical and basolateral chambers, respectively. The cells were replaced with fresh incubation medium in both chambers prior to the transport experiment. The transport experiment was initiated by replacing the incubation solution on the apical side with solution containing 10 mM of L-arginine in which 0.125 μCi/mL of L-[^3H]-arginine was included. At designated time intervals, 10 μL-solution samples were removed from the basolateral side and radioactivity of each sample was counted using a microplate liquid scintillation counter (TopCount, Packard NXT). During the experiment, when a 10 μL-solution sample was removed from the basolateral side every time, 10 μL buffer was supplemented to keep the volume constant. The uptake of [^3H]-mannitol was used to correct for nonspecific transport of molecules across the monolayer membrane. Results were expressed as the nanomoles of arginine transport across the Caco-2 cell monolayers with respect to time in minutes (nmol/min).
The experimental procedures similar to those in Example 2 were used for measuring the uptake of tryptophan molecules across the Caco-2 membrane, except using a tryptophan incubation buffer consisting of 137 mM choline chloride, 10 mM Hepes, 0.6 mM KH2PO4, 5.4 mM KCl, 2.8 mM CaCl2, 1 mM MgSO4, and 10 mM glucose, and having its pH adjusted to 7.4. Results were expressed as the nanomoles of tryptophan transport across the Caco-2 cell monolayers with respect to time in minutes (nmol/min).
In general terms: Caco-2 monolayers are a common model of the intestinal barrier.

Another experiment has as its system Caco2 cells. Briefly: Folate uptake assay (3H-folate uptake in Caco2 cells). To be noted: compound 0.1 μM. As for the experimental part:
The Caco2 cells were subjected to folate uptake test in a manner similar to that described in the glucose uptake assay in Example 1 above. In the folate uptake test, the Caco2 cells were pretreated with the culture medium containing 5% FBS and purified ginsenosides at a concentration of […] for 2 days before the cells were cultured in a folate uptake buffer (Hank's balanced salt solution, supplemented with 0.14 g/L CaCl2, 0.1 g/L MgCl2, and 0.1 g/L MgSO4, pH 6.0) for 1 hour. The buffer was then aspirated, and uptake was initiated by adding 0.2 mL of fresh folate uptake buffer containing 2 μCi/mL radioactive folate (3,5,7,9-^3H-folic acid, 25 mCi/mmol, ARC) and cold, unlabeled folate giving a final folate concentration of 5 μM. Folate uptake was terminated by removing the uptake buffer at designated time intervals. The cells were then washed three times with ice-cold PBS and lysed by adding 0.2 mL of 0.2 N NaOH, followed by incubating at 65° C. for 20 min. Intracellular uptake of ^3H-folate was determined by transferring 20 μL of the cell lysate to the filter-bottomed UniFilter plates (Perkin-Elmer) and counting as described previously in Example 1. The amount of folate accumulated in the cells was calculated and normalized to protein concentration, and uptake rate was expressed as picomoles of folate per minutes per milligram of cell protein (pmol/min/mg). Protein concentration was determined by a standard Bicinchoninic acid (BCA) protein assay as described above.

Another experiment deals with Caco2 cell monolayer. Kind of experiment: Glucose absorption assay (transport across Caco2 monolayer in transwell, 14C-glucose). To be noted: for Transport rate (glucose): 2 days pretreatment, 25 mM glucose. The protocol:
For glucose absorption assay, 0.3 mL (10^5 cell/ml) of Caco2 cells were seeded into the apical chamber of each transwell and the basolateral chamber was added with 1 ml of culture medium (as indicated above). Costar transwell inserts (No. 3414, Corning Incorporated, NY, USA) separate each well in 24-well plates into an apical chamber (defined as a chamber above the insert) and a basolateral chamber (defined as a chamber below the insert). The culture medium in each transwell was changed every 2 days in both of the apical and basolateral chambers. To ensure the integrity of tight junction of Caco2 monolayer membrane formed in the transwell, a Trans-Epithelial Electrical Resistance (TEER) assay was conducted using Millicell®-ERS (Millipore EVOM-6; World Precision Instrument, Sarasota, Fla., USA) to measure the TEER between apical and basolateral chambers of the transwell. As the measured TEER reached 300 to 450 Ωcm^2 with the presence of differentiated brush border on the […] side of the cell on the 14th to 21st day of the culture, the Caco2 monolayer was ready for the glucose absorption test. The TEER values were taken before, during, and after each experiment to justify consistency of the data collected.
Glucose absorption was initiated by replacing the culture medium in the basolateral chamber with fresh glucose absorption buffer and the culture medium in the apical chamber with 0.2 mL of the glucose absorption buffer containing 2 μCi/ml of radioactive D-[^14C]-glucose (60 Ci/mmol, American Radiolabeled Chemicals, ARC, St. Louis, Mo., USA) and unlabeled cold glucose to give glucose at a final concentration of 25 mM. A series of five 10-μL samples were taken from the basolateral chamber at every 5 or 10 minute intervals. In order to maintain the constant buffer volume, same amount of sample buffer were added back to the basolateral chamber after withdrawn of each sample. The samples were transferred to the filter-bottomed UniFilter plates (Perkin-Elmer, Wellesley, Mass., USA) and dried in a vacuum oven at 37° C. The bottom of the UniFilter plate was sealed and 25 μL of the counting solution were added into each well. Adhesive plate sealers were used in place of the lids and radioactivity of each sample was counted using the microplate liquid scintillation counter (TopCount, Packard NXT, Packard BioScience Company, Meriden, Conn., USA). The effect of test compounds on glucose absorption was expressed as the nmoles of glucose accumulated in the basolateral chamber with respect to time in minutes (nmol/min). The glucose absorption rate was obtained by calculating the slope of the straight line from the time zero to the end point of the graphic data of each figure.

As for `CC(C)=CCC[C@](C)(O[C@@H]1O[C@H](CO)[C@@H](O)[C@H](O)[C@H]1O)[C@H]1CC[C@]2(C)[C@@H]1[C@H](O)C[C@@H]1[C@@]3(C)CC[C@H](O)C(C)(C)[C@@H]3[C@@H](O[C@@H]3O[C@H](CO)[C@@H](O)[C@H](O)[C@H]3O)C[C@]12C` [Rg1, ginsenoside Rg1], in the experiment with Caco-2 cell monolayer (compound 0.001 μM), the “* (arrow: regulatory effect on tryptophan transport)” value is reported as “↑”; the “Percentage (tryptophan transport, control = 100)” value is 130.17%; the “Transport rate (tryptophan)” value is 16.180 ± 2.8700 nmol/min. For the same compound, the “tryptophan transport rate (in words)” value in the experiment on Caco-2 cell monolayer (compound 0.001 μM to 0.1 μM) is listed as “increased”. In addition, in the experiment with Caco-2 cell monolayer (compound 0.01 μM), the “* (arrow: regulatory effect on tryptophan transport)” value was “↑”; the “Percentage (tryptophan transport, control = 100)” value is given as 133.47%; the “Transport rate (tryptophan)” value turned out to be 16.590 ± 1.4190 nmol/min. In the experiment on Caco-2 cell monolayer (compound 0.1 μM), the “* (arrow: regulatory effect on tryptophan transport)” value was “↑”; the “Percentage (tryptophan transport, control = 100)” value is given as 142.48%; the “Transport rate (tryptophan)” value was determined as 17.710 ± 0.5948 nmol/min. Besides, in the experiment with Caco2 cells, the “Percentage (folate uptake, control = 100)” value is 62.64% and the “folate uptake versus non-treated control (in words, FIG. 5)” value is listed as “decreased”. Moreover, the “Transport rate (folate uptake)” value in the experiment on Caco2 cells (2 days pretreatment, 5 μM folate, pH 6.0) came out at 1.0780 ± 0.1534 pmol/mg/min. In addition, the “effect on glucose absorption (in words)” value in the experiment with Caco2 cell monolayer is “inhibitory effect”. For the same compound, in the experiment with Caco2 cell monolayer (compound 0.01 μM), the “Percentage (glucose transport, control = 100)” value is 51.88% and the “Transport rate (glucose)” value is recorded as 1.1317 ± 0.1299 nmol/min. For the same compound, the “glucose transportation (in words, FIG. 2)” value in the experiment on Caco2 cell monolayer (compound 0.01 μM to 1 μM) was “clearly inhibited”. For the same compound, in the experiment on Caco2 cell monolayer (compound 0.1 μM), the “Percentage (glucose transport, control = 100)” value worked out at 58.51% and the “Transport rate (glucose)” value was 1.2763 ± 0.1907 nmol/min. Further, in the experiment with Caco2 cell monolayer (compound 1 μM), the “Percentage (glucose transport, control = 100)” value is 96.68% and the “Transport rate (glucose)” value is on record as 2.1089 ± 0.2097 nmol/min.
